Results on 10 substances are retold here after US6521594B1, “Method and composition for treating thrombosis” (La Jolla Cancer Research Foundation, priority 1990, dated 2003).

The subject of test [1] is canine platelets. As to the kind of experiment: Canine platelet aggregation in vitro (ADP, arachidonic acid, collagen). It is filed as cell-based, dog. The method, then:
(§1) Platelet counts and ex vivo aggregation studies were performed one hour before and 1, 3, and 5 hours after application of anodal direct current.
Epinephrine (550 nM) was used to prime platelets before stimulation with arachidonic acid. Peptides were added in 1% dilutions to the PRP solutions.

Test [2] relates to αvβ5. As to the kind of experiment: αvβ5 ELISA IC50 (μM). An excerpt: Table printed on a drawing sheet, FIG. 20
Title: Modifications of R(Pmc)GHRGD(Y-OMe)RCR
Head of the field: αvβ5 ELISA IC50 (μM)
First copying reader's note: Footnote marks a, b and c are printed but their texts are not on the sheet; the underlined part of each sequence (Pmc to C) marks the cyclic portion, and D in (DH) and (DY) is a small capital for the D-amino acid.
Where the first naming reader finds the target: head: αvβ5 ELISA IC50 (μM)

For test [3], the target named is platelets (Homo sapiens, UniProt P05106+P08514). As to the kind of experiment: Platelet aggregation assay (Examples XI.G and XII). It is filed as cell-based. The settings on record: comparator analogue 32. The method, then: (§2) Platelet aggregation was assessed using the method of Born, Nature 194:927-929 (1962), incorporated herein by reference. Briefly, the change in light transmission was measured through a stirred suspension of platelets in an aggregometer (Model 400 VS, Chrono-Log, Havertown, Pa., USA). Studies employing ADP were performed with platelet-rich plasma (PRP), which was obtained by low-speed centrifugation (200×g for 10 min.) of whole blood freshly drawn into trisodium citrate (at a final concentration of 11 mM). In studies using thrombin, the PRP was gel-filtered on Sepharose 2B in divalent ion-free Tyrode's solution containing 2% BSA. For all studies, the reference standard was platelet-poor plasma, which was obtained by centrifuging PRP at 1000×g for 5 min.
All aggregation studies were performed at 37° C. with a constantly stirred suspension of 3×10^8 platelets/mL. (Platelet count was determined with the aid of a hemacytometer.) Peptides and stimulants were added to these suspensions in 1% dilutions. The PRP and gel-filtered platelets were used within three hours from the time of blood collection.
(§3) The peptides described in this Example were synthesized according to the methods of Examples I and XI. Selectivity and potency were measured according to the methods of Examples II through XI. The peptide identification numbers used in this Example are consistent and relevant to this Example only. Some of the peptides are identified by other nomenclature elsewhere in this document.

Test [4] relates to platelets. Briefly: Ex vivo inhibition of platelet aggregation (Table IV). It is filed as in vivo, dog. The settings on record: dose as listed per peptide (bolus ± infusion). As for the experimental part:
as §2, with “Platelet aggregation assays were performed following the methods of this Example or those of Example IX.G. Platelet” for “Platelet”, “(Nature” for “Nature”, “(1962)),” for “(1962),”
as §1
Using the method described in Example V to measure ex vivo inhibition of platelet aggregation and the method described in Example VII to measure bleeding, four additional peptides were tested. These peptides included 11J, 11Q, 11K and 11V.

Test [5] has as its system platelets. Briefly: Ex vivo platelet aggregation in dogs (Example XII.H). Also on record: species or system dog; dose or concentration left out as unconfirmed. The method, then: More importantly, several peptides in FIG. 23 were administered to dogs (according to the method of Example VII) at doses capable of inhibiting ex vivo platelet aggregation by >95%.
The bleeding time indicated in the parentheses was measured at a five-fold higher concentration of peptide. […]

In test [6] the test system is prosthetic arterial graft thrombosis. Briefly: Platelet and fibrinogen uptake by Gore-Tex arterial grafts in ex vivo shunt. Also noted: species or system baboon. As for the experimental part: Adult male baboons (weighing 16 to 25 kg) were used in these studies. These were sedated with ketamine hydrochloride (200 to 250 mg intramuscular injection) and maintained under anesthesia with sodium pentobarbital (50 to 75 mg administered intravenously as necessary).
Twenty-four hours before the ex vivo shunt was established, platelets were isolated from 500 ml of blood from the test animal and labelled with ca. 500 microcuries of indium-111 oxine (Medi+Physics, Emeryville, Calif.), which irreversibly and specifically binds to platelets with an efficiency of 50%. Immediately after labelling, these platelets were then injected back into the animal and allowed to circulate for 24 hours. Immediately before the start of the study, fibrinogen that had been isolated from the animal and labelled with iodine-131 (DuPont Nuclear, Boston, Mass.) was also injected back into the animal. Also at this time, baseline determinations of the clotting and template bleeding times were made, and blood samples were drawn for hematology studies.
To establish the ex vivo shunt, the femoral artery and vein were percutaneously cannulated with introducer catheters (KMA Inc., Mansfield, Mass.). The catheters were then connected to medical-grade, heparin-coated silastic tubing (2.59 mm internal diameter, (Extracorporeal Medical Specialties, Inc., King of Prussia, Pa.). […] Finally, a 5 cm-long test segment of a 4 mm (internal diameter) vascular graft was inserted at the apex of the circuit. The graft used in these studies was Gore-tex (expanded polytetrafluoroethylene, (W. L. Gore and Associates, Inc., Flagstaff, Ariz.). An electromagnetic flow probe was then inserted into the tubing circuit to measure blood flow, which was maintained at 100 ml/min. by varying the resistance imported by a partially occluding screw clamp that was distal to the probe. Finally, a 5 cm-long test segment of a 4 mm (internal diameter) vascular graft was inserted at the apex of the circuit. The graft used in these studies was Gore-tex (expanded polytetrafluoroethylene, W. L. Gore and Associates, Inc., Flagstaff, Ariz.).
Platelet deposition onto the grafts was monitored by dynamic scanning with a gamma camera (Sigma 400, Ohio Nuclear, Inc., Sohon, Ohio), which detects the gamma radiation emitted by the ^111indium-labelled platelets. Once the circuit was in place, the animal was placed under this camera, and blood flow was initiated. Scans were then taken at the rate of one frame per two minutes for two hours. The data from these scans were collected on a dedicated Digital MDA computer (Maynard, Mass.). […]

Test [7] deals with platelets. As to the kind of experiment: Ex vivo platelet aggregation in the canine coronary thrombosis study. Also on record: species or system dog. The settings on record: 10 mg/kg injection; 1, 3 and 5 h. As for the experimental part: For all ex vivo studies (see FIG. 3), control aggregation values were standardized to the percentages of light transmission observed in PRP and PPP samples (0% and 100%, respectively).
(§4) Animals were randomly assigned to two treatment groups: vehicle control (i.e., normal saline) or RGD peptides at various concentrations. Peptides were administered intra-atrially in both bolus and continuous injections. Each bolus injection consisted of 0.5 to 10 mg/kg and was administered 15 minutes before application of the current. A continuous infusion of the same peptide was then started immediately after completion of this initial injection. Animals received a 25 μg/kg/min to 200 μg/kg/min infusion. The anti-thrombotic effects of the peptides were monitored until 30 minutes after the occurrence of a persistent, occlusive thrombus or five hours after the initiation of electrical stimulation (whichever resulted first). If an occlusive thrombus had not developed within four hours after the initiation of current, the peptide infusion was stopped.
as §1
Platelet aggregation was also determined ex vivo at one, three, and five hours after current application. For these studies, arachidonic acid, or collagen was again used to stimulate the platelets.

Test [8] concerns coronary thrombosis. As to the kind of experiment: Electrically induced canine coronary thrombosis (time to full occlusion). It is filed as in vivo, dog. The settings on record: 10 mg/kg. The method, then:
Male mongrel dogs weighing 14 to 20 kg were selected based on proper aggregation of their platelets in response to arachidonic acid, collagen, and adenosine disphosphate (ADP) and based on similar weights and hemodynamic properties.
Before surgery, the animals were anesthetized with sodium pentobarbital (30 mg/kg, i.v.) and then intubated and ventilated on room air with positive pressure using a respirator (Harvard Apparatus, S. Natick, Mass.) at a volume of 30 ml/kg and a frequency of 12 breaths/min. Surgery, performed under aseptic conditions, was begun with the placement of cannulae into the left carotid artery and jugular vein for monitoring arterial blood pressure (Statham P23 pressure transducer, Gould, Inc., Cardiovascular Products, Oxnard, Calif.) and administering intravenous fluids.
The heart was exposed via a left thoracotomy through the 5th intercostal space. A 2-cm segment of the left circumflex coronary artery (LCCA) was isolated from surrounding tissue by blunt dissection. […] The intra-coronary electrode was constructed by attaching a 25-gauge hypodermic needle tip to a 30-gauge Teflon-insulated silver-coated copper wire. The mechanical occluder was constructed of stainless steel in a C shape with a Teflon screw (2 mm diameter) on top. It was adjusted to control vessel circumference and decrease the reactive hyperemic flow due to a 10-sec (full) occlusion by 50-70% without affecting basal coronary blood flow (FIG. 1). A monopolar epicardial electrode was sutured to the surface of the ventricle in the region of LCCA distribution to monitor ischemic changes in the electrocardiogram (ECG). The left atrium was cannulated with polythylene tubing for administration of the peptide. Continuous recordings of blood pressure, limb lead II ECG, epicardial electrogram, and mean and phasic LCCA blood flow were obtained on a Model 7 polygraph (Grass Instrument Co., Quincy, Mass.).
One hour after the completion of surgery, a 100 micro-amp continuous anodal direct current delivered from a 9 volt nickel-cadmium battery was applied to the intimal surface of the LCCA. The anode of the battery was in series with a 250,000 ohm potentiometer and the intraluminal coronary artery electrode. The electric circuit was completed by placing the cathode in a subcutaneous site. Electrical stimulation was applied for three hours. At the conclusion of each experiment, the heart was fibrillated electrically and quickly removed, and the LCCA was dissected free as far as possible to verify the position of the implanted anodal electrode.
as §4
Coronary thrombosis was quantified as the time to full occlusion. The effects of the various peptide treatments on coronary thrombosis is illustrated in FIG. 4.

The test system of test [9] is platelets. Briefly: Ex vivo platelet aggregation on PRP of baboon. The settings on record: animal 2; ADP 10 μm; 0, 1 and 2 hours. The format is in vivo. As for the experimental part: At one- and two-hour time points, template bleeding times were measured, and blood samples were drawn to assess the hematology aggregation studies. Platelet aggregation studies were performed as described in Example V using ADP as the stimulus.
In addition, platelet aggregation studies were conducted on PRP derived from the second animal. Whole blood was drawn at three time points (0, 1 and 2 hours) of both control and experimental shunts.

Test [10] addresses T1, αIIbβ3 (Homo sapiens, UniProt P05106+P08514).
T1 construct: Platelet glycoprotein IIb/IIIa was purified from outdated human platelets; from tissue; host or cells: outdated human platelets
As to the kind of experiment: αIIbβ3 (IIb/IIIa-fibrinogen) ELISA of Example XII. It is filed as binding. The settings on record: comparator analogue 1. As for the experimental part:
Microtiter plates were coated overnight at room temperature with 110 μL of human fibrinogen (at 10 μg/mL) diluted in TBS. The plates were then washed three times with 200 μL per well of TBS+0.05% Tween-20. Fifty (50) μL of purified IIb/IIIa diluted in TBS with 20 mM octylglucoside, 2 mM MgCl2 and 2 mM CaCl2 were added to the wells. Fifty (50) μLs of peptide in the same buffer were then added in 10-fold serial dilutions and the plates were incubated for three hours at room temperature. The plates were washed three times with TBS-Tween and 100 μL of rabbit anti-IIb/IIIa were added to each well. After a two hour room temperature incubation, the plates were washed and the remaining steps done as described for the FnR ELISA.
as §3

The target in test [11] is T2, vitronectin receptor (Vn-R) (Homo sapiens, UniProt P05106+P06756).
T2 construct: from tissue; host or cells: human placenta
As to the kind of experiment: Vitronectin receptor binding (ELISA or liposome attachment assay). The settings on record: read-out: VnR Binding (IC50), purified receptor.
Description: Receptor and ligand purifications were performed according to the methods in this Example or those in Example XI.C. Receptors were purified according to the procedures of Pytela et al. (Methods Enzymol. 144:475 (1987)), incorporated herein by reference. […] Except where stated, all procedures were carried out at 4° C. The peptide column was washed with three volumes of Tris-buffered saline (TBS) containing 1 mM Ca^2+ and 25 mM OG and then with TBS containing 1 mM Ca^2+ and 25 mM octyl thioglucoside (OTG) at room temperature. […] Finally, Ca^2+ and Mg^+2 were added to eluted fractions to achieve final concentrations of 1 mM for both ions.
Maxisorp microtiter plates were coated with 2 μg/ml human vitronectin dissolved in PBS (50 ml/well) and stored overnight at 4° C. The plates were washed two times with PBS-0.05% Tween-20 (wash buffer) and blocked by incubating with about 150 μl/well of assay buffer (1%, BSA (RIA grade or better) in 50 mM Tris-HCl, 100 mM NaCl, 1 mM MgCl2, CaCl2, MnCl2 pH 7.4) for 60 minutes. […] The plates were read at 492-405 nm and the data analyzed by four-parameters fit. […]
In parallel studies with the platelet aggregation experiments (described in Example V), the apparent affinities of peptides for GP IIb/IIIa, fibronectin and vitronectin receptors were determined. […]
Those for VnR and GP IIb/IIIa were determined either by ELISA or liposome attachment assay (Example IV).

[12] abbreviates: animal 1, two bolus IV injections of 10 mg/kg.
Where [13] appears, read: animal 2, 10 mg/kg bolus IV + 10 mg/kg/hr infusion for 2 h.

Like-named read-outs stand apart in the source and are kept apart here.

Chain of platelets (Homo sapiens, UniProt P05106+P08514) (P08514 32-1039): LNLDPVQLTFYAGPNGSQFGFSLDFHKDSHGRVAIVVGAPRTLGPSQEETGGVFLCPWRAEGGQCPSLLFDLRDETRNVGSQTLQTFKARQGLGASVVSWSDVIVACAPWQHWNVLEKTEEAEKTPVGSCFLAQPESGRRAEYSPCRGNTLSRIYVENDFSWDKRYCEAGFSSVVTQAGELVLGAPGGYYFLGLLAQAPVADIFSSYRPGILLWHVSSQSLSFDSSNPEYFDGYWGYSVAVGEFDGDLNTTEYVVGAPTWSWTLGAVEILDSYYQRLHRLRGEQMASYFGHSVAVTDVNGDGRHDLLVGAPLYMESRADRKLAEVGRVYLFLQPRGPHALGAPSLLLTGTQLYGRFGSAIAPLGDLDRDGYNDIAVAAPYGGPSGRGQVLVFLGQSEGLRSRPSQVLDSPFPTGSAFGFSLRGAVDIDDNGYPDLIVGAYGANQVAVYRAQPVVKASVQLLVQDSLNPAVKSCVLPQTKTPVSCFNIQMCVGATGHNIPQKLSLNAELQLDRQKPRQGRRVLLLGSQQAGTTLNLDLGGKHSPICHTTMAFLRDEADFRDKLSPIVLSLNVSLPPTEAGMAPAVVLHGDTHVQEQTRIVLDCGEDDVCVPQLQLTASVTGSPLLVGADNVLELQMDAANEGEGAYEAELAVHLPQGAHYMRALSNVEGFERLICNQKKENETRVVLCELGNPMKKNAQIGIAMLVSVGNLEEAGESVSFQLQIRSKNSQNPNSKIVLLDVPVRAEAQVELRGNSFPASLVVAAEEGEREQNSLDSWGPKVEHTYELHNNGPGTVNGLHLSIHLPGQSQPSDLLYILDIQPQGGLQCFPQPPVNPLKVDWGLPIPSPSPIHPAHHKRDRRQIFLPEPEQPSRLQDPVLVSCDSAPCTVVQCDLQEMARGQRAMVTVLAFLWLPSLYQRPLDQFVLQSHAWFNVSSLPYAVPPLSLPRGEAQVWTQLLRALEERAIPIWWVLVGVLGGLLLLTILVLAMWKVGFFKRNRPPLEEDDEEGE
Chain of platelets (Homo sapiens, UniProt P05106+P08514) (P05106 27-788): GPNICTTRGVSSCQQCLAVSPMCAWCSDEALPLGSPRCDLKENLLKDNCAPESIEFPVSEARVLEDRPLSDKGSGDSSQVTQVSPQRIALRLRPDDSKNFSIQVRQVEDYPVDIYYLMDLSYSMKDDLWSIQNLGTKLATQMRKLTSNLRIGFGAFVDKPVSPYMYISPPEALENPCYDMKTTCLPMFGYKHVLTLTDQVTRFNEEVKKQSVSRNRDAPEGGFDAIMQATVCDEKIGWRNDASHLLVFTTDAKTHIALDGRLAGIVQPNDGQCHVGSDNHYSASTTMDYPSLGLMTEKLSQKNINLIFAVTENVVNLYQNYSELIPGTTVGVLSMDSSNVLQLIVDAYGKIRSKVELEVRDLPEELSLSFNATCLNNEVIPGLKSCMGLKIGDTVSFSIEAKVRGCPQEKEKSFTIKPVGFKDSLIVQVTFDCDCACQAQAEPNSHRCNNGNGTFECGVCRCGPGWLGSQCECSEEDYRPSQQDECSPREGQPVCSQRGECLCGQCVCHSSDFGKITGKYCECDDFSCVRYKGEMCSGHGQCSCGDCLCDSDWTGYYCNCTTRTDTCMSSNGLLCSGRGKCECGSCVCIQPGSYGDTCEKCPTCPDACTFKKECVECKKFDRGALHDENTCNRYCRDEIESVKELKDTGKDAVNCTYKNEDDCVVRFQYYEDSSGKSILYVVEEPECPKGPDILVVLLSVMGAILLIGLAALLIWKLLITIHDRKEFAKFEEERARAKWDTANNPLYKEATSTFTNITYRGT
T1 sequence (P08514 32-887 limits assumed): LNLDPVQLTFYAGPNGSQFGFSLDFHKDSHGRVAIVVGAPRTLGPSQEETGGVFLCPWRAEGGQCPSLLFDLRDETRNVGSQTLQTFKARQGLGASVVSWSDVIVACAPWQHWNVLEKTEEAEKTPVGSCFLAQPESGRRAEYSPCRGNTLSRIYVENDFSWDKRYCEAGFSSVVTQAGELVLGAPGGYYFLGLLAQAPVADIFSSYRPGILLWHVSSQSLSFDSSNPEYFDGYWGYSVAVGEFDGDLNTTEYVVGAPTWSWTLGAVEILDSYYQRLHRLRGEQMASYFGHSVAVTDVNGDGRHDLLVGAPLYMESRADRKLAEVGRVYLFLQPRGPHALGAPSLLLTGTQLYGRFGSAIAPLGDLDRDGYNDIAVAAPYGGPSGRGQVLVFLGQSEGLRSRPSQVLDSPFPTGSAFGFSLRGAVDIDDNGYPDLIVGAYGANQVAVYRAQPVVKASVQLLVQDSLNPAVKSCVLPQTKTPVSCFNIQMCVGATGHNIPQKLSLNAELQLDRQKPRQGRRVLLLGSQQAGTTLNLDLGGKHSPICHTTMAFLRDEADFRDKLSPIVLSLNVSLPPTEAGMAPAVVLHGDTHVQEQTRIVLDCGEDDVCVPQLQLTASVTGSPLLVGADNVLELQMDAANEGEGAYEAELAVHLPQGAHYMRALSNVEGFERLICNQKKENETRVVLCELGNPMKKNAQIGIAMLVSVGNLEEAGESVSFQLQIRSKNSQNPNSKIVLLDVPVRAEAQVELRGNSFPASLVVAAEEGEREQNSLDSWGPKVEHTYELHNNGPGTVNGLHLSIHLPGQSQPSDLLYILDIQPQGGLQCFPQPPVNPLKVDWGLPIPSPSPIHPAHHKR
T1 sequence (P08514 891-1039 partner limits assumed): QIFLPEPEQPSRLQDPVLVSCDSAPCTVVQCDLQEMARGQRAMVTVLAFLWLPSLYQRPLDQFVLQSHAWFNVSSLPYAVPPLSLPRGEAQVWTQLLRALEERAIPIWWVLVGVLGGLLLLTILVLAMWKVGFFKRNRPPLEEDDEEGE
T1 sequence (P05106 27-788): as the sequence (P05106 27-788) above
T2 sequence (P06756 31-889 limits assumed): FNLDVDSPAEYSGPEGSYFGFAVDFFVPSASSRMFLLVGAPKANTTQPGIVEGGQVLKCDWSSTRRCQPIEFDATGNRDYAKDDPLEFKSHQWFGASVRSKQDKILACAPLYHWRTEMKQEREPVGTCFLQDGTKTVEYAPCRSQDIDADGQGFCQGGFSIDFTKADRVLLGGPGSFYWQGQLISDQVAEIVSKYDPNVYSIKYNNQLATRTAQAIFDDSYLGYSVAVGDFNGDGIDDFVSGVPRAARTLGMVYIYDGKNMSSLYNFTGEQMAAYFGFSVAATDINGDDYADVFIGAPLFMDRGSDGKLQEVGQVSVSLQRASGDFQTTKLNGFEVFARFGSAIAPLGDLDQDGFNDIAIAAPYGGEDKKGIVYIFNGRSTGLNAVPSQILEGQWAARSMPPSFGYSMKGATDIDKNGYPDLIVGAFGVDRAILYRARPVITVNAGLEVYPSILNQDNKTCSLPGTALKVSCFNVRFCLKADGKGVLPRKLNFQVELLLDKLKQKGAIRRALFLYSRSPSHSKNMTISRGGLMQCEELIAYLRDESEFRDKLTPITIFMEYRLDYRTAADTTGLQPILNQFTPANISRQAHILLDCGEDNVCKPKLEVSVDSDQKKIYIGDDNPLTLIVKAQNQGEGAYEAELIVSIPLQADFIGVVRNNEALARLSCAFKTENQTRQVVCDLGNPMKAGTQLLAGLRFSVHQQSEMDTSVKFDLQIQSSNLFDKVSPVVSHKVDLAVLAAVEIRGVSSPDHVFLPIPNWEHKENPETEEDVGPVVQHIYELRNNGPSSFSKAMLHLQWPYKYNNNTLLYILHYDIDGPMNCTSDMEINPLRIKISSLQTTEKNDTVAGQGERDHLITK
T2 sequence (P06756 891-1048 limits assumed): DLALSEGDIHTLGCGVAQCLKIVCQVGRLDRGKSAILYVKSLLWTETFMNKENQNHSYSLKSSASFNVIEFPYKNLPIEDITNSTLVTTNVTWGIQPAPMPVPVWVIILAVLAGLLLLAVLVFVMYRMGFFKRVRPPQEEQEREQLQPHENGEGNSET
T2 sequence (P05106 27-788): as the sequence (P05106 27-788) above

With GRGDSP [reference compound], the IC50 in [1] (all three responses (ADP, arachidonic acid, collagen), read-out: concentration inhibiting canine platelet aggregation by 50%) is roughly 130 µM.

R(Pmc)G(DY)RGD(Y-OMe)RCR [compound 25]: the IC50 in test [2] was 10 µM.

As for Ac-CNPRGD(Y-OMe)EC-NH2 [11J], the “fold decrease in potency versus analogue 32” value in [3] is on record as 15 fold. In addition, the “ex vivo inhibition platelet aggregation” value in test [4] is recorded as greater than 98%.

Take Ac-CNPRGD(Y-OMe)RCNH2 [8X]: the “inhibition of ex vivo platelet aggregation” value in test [5] was greater than 95%.

Consider G(Pen)GHRGDLRCA [2G], for which, in [6] (setting [12]), the “reduction in 111In-platelet uptake by graft” value is 90% and the “reduction in 131I-fibrinogen uptake by graft” value came out at 79%. In test [6] (setting [13]), the “reduction in labelled fibrinogen uptake by graft” value turned out to be 78% and the “reduction in labelled platelet uptake by graft” value turned out to be 84%. Moreover, in test [7], the “effect on ADP-stimulated ex vivo aggregation” value was “substantially inhibited”, the “inhibition of AA-stimulated ex vivo aggregation relative to control” value is recorded as 43-70% and the “inhibition of collagen-stimulated ex vivo aggregation relative to control” value is 12-50%. The “coronary thrombosis: time to full occlusion” value in [8] was “did not significantly influence”. Further, in test [9], the “ex vivo platelet aggregation response” value is “completely unresponsive to the peptide treatment”. For the same substance, the IC50 in test [1] (10 μm ADP, […] arachidonic acid or 9.6 micrograms/ml collagen, canine PRP, read-out: IC50 against canine platelet aggregation) fell in the range of 15 to 30 µM.

Consider R(Pmc)GYRGD(Y-OMe)RCR [compound 24], for which the IC50 in test [2] is 8.8 µM.

Consider R(Pmc)GPRGD(Y-OMe)RCR [compound 26], for which the IC50 in test [2] is 1.7 µM.

With Ac-CNPRGD(Y-OMe)AC-NH2 [11K], the “platelet aggregation potency compared with analogue 32” value in [3] is “substantial decreases”. For the same substance, the “ex vivo inhibition platelet aggregation” value in [4] was greater than 98%.

For G(dPen)GHRGDLRCA, the “fold more potent than analogue 1 in the αIIbβ3 assay” value in test [10] is reported as “approximately 2 fold”.

On to G(Pen)IARGDWNCA, for which the IC50 in test [11] was determined as 0.04 µM.
